Test results reported in patent US20200071361A1, “ENGINEERED ANTIMICROBIAL AMPHIPHILIC PEPTIDES AND METHODS OF USE” (priority 2017, published 2020).
Values after ≈ are worked out from the molar mass of the structure shown.

How the values were obtained:
[1] = test system: Enterobacter spp. isolates (n = 102); assay: Broth microdilution MIC, clinical isolate panel; type: cell-based, Enterobacter aerogenes and E. cloacae; details: Enterobacter spp. (n = 102)
Experimental: (§1) Comparator antibiotics were supplied by Micromyx, and stock solutions were prepared on the first day of testing using solvents recommended by CLSI (1). Stock solutions of all compounds were made at 40× the final testing concentration and stored at −80° C. prior to testing. Information regarding compound source, catalog and lot number, testing concentrations and drug diluent for the comparators and test agent are detailed below in Table 3.
(§2) The test organisms evaluated in this study consisted of clinical isolates from the Micromyx Repository and reference isolates from the American Type Culture Collection (ATCC; Manassas, Va.). The clinical isolates were obtained from USA hospitals. Upon initial receipt at Micromyx, the organisms were sub-cultured onto an appropriate agar medium. Following incubation, colonies were harvested from these plates and cell suspensions prepared and frozen at −80° C. with a cryoprotectant. Prior to testing, the isolates were streaked from frozen vials onto Trypticase Soy Agar with 5% sheep blood (Becton Dickenson [BD]; Sparks, Md.; Lot Nos. 7173618, 7166759, 7208688, 72144895, 7228505 and Remel Lenexa, Kans. Lot No. 212574). Plates were incubated at 35° C. overnight.
(§3) Mueller Hinton II broth (MHB II; BD; Lot Nos. 6258541 and 7143896) was used for MIC testing of aerobic organisms.
(§4) MIC values were determined using a broth microdilution procedure described by CLSI (1, 3). Automated liquid handlers (Multidrop 384, Labsystems, Helsinki, Finland; Biomek 2000 and Biomek FX, Beckman Coulter, Fullerton Calif.) were used to conduct serial dilutions and liquid transfers.
(§5) To prepare the drug mother plates, which would provide the serial drug dilutions for the replicate daughter plates, the wells of columns 2-12 of standard 96-well microdilution plates (Costar 3795) were filled with 150 μl of the designated diluent for each row of drug. The test articles and comparator compounds (300 μl at 40× the highest concentration to be tested) were dispensed into the appropriate wells in column 1. The Biomek 2000 was then used to make 2-fold serial dilutions in the mother plates from column 1 through column 11. The wells of Column 12 contained no drug and served as the organism growth control wells for the assay.
The daughter plates were loaded with 185 μL per well of MHB II using the Multidrop 384. The daughter plates were completed on the Biomek FX instrument which transferred 5 µL of drug solution from each well of a mother plate to the corresponding well of each daughter plate in a single step. […]
Plates were stacked 3-4 high, covered with a lid on the top plate, placed in plastic bags, and incubated at 35° C. for 16 to 20 hrs. […] The MIC was read and recorded as the lowest concentration of drug that inhibited visible growth of the organism. […]

[2] = test system: Pseudomonas aeruginosa isolates (n = 109); assay: Broth microdilution MIC, clinical isolate panel; type: cell-based; details: for % R (percent of isolates resistant, clinical breakpoints): Pseudomonas aeruginosa (n = 109)
Experimental: as §1, §2, §3, §4, §5
(§6) The daughter plates were loaded with 185 μL per well of MHB II using the Multidrop 384. The daughter plates were completed on the Biomek FX instrument which transferred 5 µL of drug solution from each well of a mother plate to the corresponding well of each daughter plate in a single step. A standardized inoculum of each test organism was prepared per CLSI methods (1). The inoculum for each organism was dispensed into sterile reservoirs divided by length (Beckman Coulter), and the Biomek 2000 was used to inoculate the plates. Daughter plates were placed on the Biomek 2000 work surface in reverse orientation so that inoculation took place from low to high drug concentration.
(§7) Plates were stacked 3-4 high, covered with a lid on the top plate, placed in plastic bags, and incubated at 35° C. for 16 to 20 hrs. Following incubation, the microplates were removed from the incubator and viewed from the bottom using a plate viewer. […] The MIC was read and recorded as the lowest concentration of drug that inhibited visible growth of the organism.
(§8) Clinical breakpoints to determine percent resistance within a given organism group were obtained from CLSI (3), with the exception of colistin for K. pneumoniae, Enterobacter spp., and E. coli, which are only available from EUCAST.

[3] = test system: Acinetobacter spp. isolates (n = 104); assay: Broth microdilution MIC, clinical isolate panel; type: cell-based; details: Acinetobacter spp. (n = 104); for MIC: read-out: Mode (MIC)
Experimental: as §1, §2, §3, §4, §5, §6, §7, §8

[4] = test system: Escherichia coli isolates (n = 101); assay: Broth microdilution MIC, clinical isolate panel; type: cell-based; details: Escherichia coli (n = 101)
Experimental: as §1, §2, §3, §4, §5, §6, §7, §8

[5] = test system: Klebsiella pneumoniae isolates (n = 101); assay: Broth microdilution MIC, clinical isolate panel; type: cell-based; details: Klebsiella pneumoniae (n = 101); for MIC: read-out: Mode (MIC)
Experimental: as §1, §2, §3, §4, §5, §6, §7, §8

[6] = test system: Acinetobacter baumannii ATCC BAA-1797 (MDR); assay: Broth microdilution MIC (Table 2); type: cell-based; details: ATCCBAA1797, read-out: MIC
Experimental: (§9) Each peptide was formulated in PBS buffer prior to testing. Peptides of SEQ ID NO:5 and SEQ ID NO:8 were brought up in 100% DMSO with 0.002% polysorbate-80 at 1.28 mg/mL (40× the highest final test concentration of 32 mcg/mL). Final test concentration of DMSO was 2.5% in the assay at the first dilution for those two compounds.
(§10) Mueller Hinton II broth (MHB II; BD; Lot Nos. 6258541 and 7143896) was used for MIC testing of aerobic organisms. 0.002% polysorbate 80 (P80) was added to the test medium.
as §4
as §5, with “serial peptide” for “serial drug”, “of peptide.” for “of drug.”
as §6, with “5 uL” for “5 µL”, “of peptide” for “of drug”, “CLSI methods.” for “CLSI methods (1).”, “concentration. The plates were then inoculated with 10 μL of the inoculum resulting in a final cell density of approximately 5×10^5 CFU/mL, per well.” for “concentration.”
as §7, with “peptide” for “drug”

[7] = test system: Pseudomonas aeruginosa ATCC BAA-2109 (MDR); assay: Broth microdilution MIC (Table 2); type: cell-based; details: ATCCBAA2109
Experimental: as §9, §10, §4
as §5, with “serial peptide” for “serial drug”, “of peptide.” for “of drug.”
as §6, with “5 uL” for “5 µL”, “of peptide” for “of drug”, “CLSI methods.” for “CLSI methods (1).”, “concentration. The plates were then inoculated with 10 μL of the inoculum resulting in a final cell density of approximately 5×10^5 CFU/mL, per well.” for “concentration.”
as §7, with “peptide” for “drug”

[8] = test system: Acinetobacter baumannii ATCC 19606 (non-MDR); assay: Broth microdilution MIC (Table 2); type: cell-based; details: ATCC19606, read-out: MIC
Experimental: as §9, §10, §4
as §5, with “serial peptide” for “serial drug”, “of peptide.” for “of drug.”
as §6, with “5 uL” for “5 µL”, “of peptide” for “of drug”, “CLSI methods.” for “CLSI methods (1).”, “concentration. The plates were then inoculated with 10 μL of the inoculum resulting in a final cell density of approximately 5×10^5 CFU/mL, per well.” for “concentration.”
as §7, with “peptide” for “drug”

[9] = test system: Streptococcus agalactiae ATCC 13813; assay: Broth microdilution MIC (Table 2); type: cell-based; details: ATCC13813, read-out: MIC
Experimental: as §9, §10, §4
as §5, with “serial peptide” for “serial drug”, “of peptide.” for “of drug.”
as §6, with “5 uL” for “5 µL”, “of peptide” for “of drug”, “CLSI methods.” for “CLSI methods (1).”, “concentration. The plates were then inoculated with 10 μL of the inoculum resulting in a final cell density of approximately 5×10^5 CFU/mL, per well.” for “concentration.”
as §7, with “peptide” for “drug”

[10] = test system: Streptococcus pyogenes ATCC 49399; assay: Broth microdilution MIC (Table 2); type: cell-based; details: ATCC49399, read-out: MIC
Experimental: as §9, §10, §4
as §5, with “serial peptide” for “serial drug”, “of peptide.” for “of drug.”
as §6, with “5 uL” for “5 µL”, “of peptide” for “of drug”, “CLSI methods.” for “CLSI methods (1).”, “concentration. The plates were then inoculated with 10 μL of the inoculum resulting in a final cell density of approximately 5×10^5 CFU/mL, per well.” for “concentration.”
as §7, with “peptide” for “drug”

[11] = test system: Escherichia coli ATCC 35218 (ESBL); assay: Broth microdilution MIC (Table 2); type: cell-based; details: ATCC35218
Experimental: as §9, §10, §4
as §5, with “serial peptide” for “serial drug”, “of peptide.” for “of drug.”
as §6, with “5 uL” for “5 µL”, “of peptide” for “of drug”, “CLSI methods.” for “CLSI methods (1).”, “concentration. The plates were then inoculated with 10 μL of the inoculum resulting in a final cell density of approximately 5×10^5 CFU/mL, per well.” for “concentration.”
as §7, with “peptide” for “drug”

[12] = test system: Pseudomonas aeruginosa ATCC 27853 (non-MDR; QC); assay: Broth microdilution MIC (Table 2); type: cell-based; details: ATCC27853, read-out: MIC
Experimental: as §9, §10, §4
as §5, with “serial peptide” for “serial drug”, “of peptide.” for “of drug.”
as §6, with “5 uL” for “5 µL”, “of peptide” for “of drug”, “CLSI methods.” for “CLSI methods (1).”, “concentration. The plates were then inoculated with 10 μL of the inoculum resulting in a final cell density of approximately 5×10^5 CFU/mL, per well.” for “concentration.”
as §7, with “peptide” for “drug”

[13] = test system: Enterococcus faecalis ATCC 700802 (V583 VRE); assay: Broth microdilution MIC (Table 2); type: cell-based; details: read-out: MIC
Experimental: as §9, §10, §4
as §5, with “serial peptide” for “serial drug”, “of peptide.” for “of drug.”
as §6, with “5 uL” for “5 µL”, “of peptide” for “of drug”, “CLSI methods.” for “CLSI methods (1).”, “concentration. The plates were then inoculated with 10 μL of the inoculum resulting in a final cell density of approximately 5×10^5 CFU/mL, per well.” for “concentration.”
as §7, with “peptide” for “drug”

[14] = test system: Staphylococcus aureus ATCC 29213 (MSSA; QC); assay: Broth microdilution MIC (Table 2); type: cell-based; details: read-out: MIC
Experimental: as §9, §10, §4
as §5, with “serial peptide” for “serial drug”, “of peptide.” for “of drug.”
as §6, with “5 uL” for “5 µL”, “of peptide” for “of drug”, “CLSI methods.” for “CLSI methods (1).”, “concentration. The plates were then inoculated with 10 μL of the inoculum resulting in a final cell density of approximately 5×10^5 CFU/mL, per well.” for “concentration.”
as §7, with “peptide” for “drug”

[15] = test system: Enterococcus faecalis ATCC 29212 (VSE; QC); assay: Broth microdilution MIC (Table 2); type: cell-based; details: ATCC29212, read-out: MIC
Experimental: as §9, §10, §4
as §5, with “serial peptide” for “serial drug”, “of peptide.” for “of drug.”
as §6, with “5 uL” for “5 µL”, “of peptide” for “of drug”, “CLSI methods.” for “CLSI methods (1).”, “concentration. The plates were then inoculated with 10 μL of the inoculum resulting in a final cell density of approximately 5×10^5 CFU/mL, per well.” for “concentration.”
as §7, with “peptide” for “drug”

[16] = test system: Escherichia coli ATCC 25922 (QC); assay: Broth microdilution MIC (Table 2); type: cell-based; details: ATCC25922
Experimental: as §9, §10, §4
as §5, with “serial peptide” for “serial drug”, “of peptide.” for “of drug.”
as §6, with “5 uL” for “5 µL”, “of peptide” for “of drug”, “CLSI methods.” for “CLSI methods (1).”, “concentration. The plates were then inoculated with 10 μL of the inoculum resulting in a final cell density of approximately 5×10^5 CFU/mL, per well.” for “concentration.”
as §7, with “peptide” for “drug”

Structure (SMILES) | % R (percent of isolates resistant, clinical breakpoints) [1] [%] | MIC90 ([2]; Pseudomonas aeruginosa) [µg/mL] | % R (percent of isolates resistant, clinical breakpoints) [2] [%] | MIC50 [3] [µg/mL] | MIC90 [3] [µg/mL] | MIC [3] [µg/mL] | MIC90 [4] [µg/mL] | % R (percent of isolates resistant, clinical breakpoints) [5] | MIC50 [5] [µg/mL] | MIC90 [5] [µg/mL] | MIC [5] [µg/mL] | other results
C[C@@H](O)[C@H]1C(=O)N2C(C(=O)O)=C(S[C@@H]3CN[C@H](C(=O)N(C)C)C3)[C@H](C)[C@H]12 [Meropenem] | 3.9 | > 8 | 20 | > 8 | > 8 | > 8 | 0.03 (≈ 0.0782 µM) | Fifty percent | 4 (≈ 10.4 µM) | > 8 | > 8 | MIC50 ([2]; Pseudomonas aeruginosa): 0.5 µg/mL (≈ 1.3 µM); MIC ([2]; Pseudomonas aeruginosa, read-out: Mode (MIC)): 0.25 µg/mL (≈ 0.652 µM); % R (percent of isolates resistant, clinical breakpoints) [4]: 1%; MIC50 [4]: 0.015 µg/mL (≈ 0.0391 µM); MIC ([4]; read-out: Mode (MIC)): 0.015 µg/mL (≈ 0.0391 µM); MIC [6]: 0.25 µg/mL (≈ 0.652 µM); MIC [7]: 0.015 µg/mL (≈ 0.0391 µM); MIC [8]: 0.5 µg/mL (≈ 1.3 µM); MIC [9]: 0.008 µg/mL (≈ 0.0209 µM); MIC [10]: ≤ 0.004 µg/mL; MIC [11]: 0.015 µg/mL (≈ 0.0391 µM); MIC [12]: 0.25 µg/mL (≈ 0.652 µM); MIC [13]: 4 µg/mL (≈ 10.4 µM); MIC [14]: 0.12 µg/mL (≈ 0.313 µM); MIC [15]: 4 µg/mL (≈ 10.4 µM); MIC [16]: 0.015 µg/mL (≈ 0.0391 µM)
NC[C@H]1O[C@H](O[C@H]2[C@H](O)[C@@H](O[C@H]3O[C@H](CO)[C@@H](O)[C@H](N)[C@H]3O)[C@H](N)C[C@@H]2N)[C@H](N)C[C@@H]1O [Tobramycin] | 3.9 | 4 (≈ 8.56 µM) | 7.4 | 8 (≈ 17.1 µM) | > 64 | > 64 | 32 (≈ 68.4 µM) | over 60% | 16 (≈ 34.2 µM) | 64 (≈ 137 µM) | 16 (≈ 34.2 µM) | % R (percent of isolates resistant, clinical breakpoints) [3]: 49.0%
